In article PMC5290327, “SC83288 is a clinical development candidate for the treatment of severe malaria” (Nature Communications, 2017):

Columns and labels:
Assay in all cases: KINOMEscan
Format in all cases: binding
Settings in all cases: read-out: Remaining enzyme activity
ADCK4 = biological target: T1, ADCK4 (Homo sapiens, UniProt Q96D53)
T1 construct: purchased Ambit (DiscoverX) KINOMEscan; Cerep
Summary of the method: (§1)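 qPCR of a DNA tag reports how much kinase stays bound to ligand-coated beads in the presence of 10 μM SC81458, diluted from a DMSO stock. Kinase sources were T7 phage lysates from E. coli or HEK-293-expressed protein tagged with DNA.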

BIKE = biological target: T2, BIKE (Homo sapiens, UniProt Q9NSY1)
T2 construct: purchased Ambit (DiscoverX) KINOMEscan; Cerep
Summary of the method: as §1

CAMK2g = biological target: T3, CAMK2g (Homo sapiens, UniProt Q13555)
T3 construct: purchased Ambit (DiscoverX) KINOMEscan; Cerep
T3 sequence (Q13555 whole entry): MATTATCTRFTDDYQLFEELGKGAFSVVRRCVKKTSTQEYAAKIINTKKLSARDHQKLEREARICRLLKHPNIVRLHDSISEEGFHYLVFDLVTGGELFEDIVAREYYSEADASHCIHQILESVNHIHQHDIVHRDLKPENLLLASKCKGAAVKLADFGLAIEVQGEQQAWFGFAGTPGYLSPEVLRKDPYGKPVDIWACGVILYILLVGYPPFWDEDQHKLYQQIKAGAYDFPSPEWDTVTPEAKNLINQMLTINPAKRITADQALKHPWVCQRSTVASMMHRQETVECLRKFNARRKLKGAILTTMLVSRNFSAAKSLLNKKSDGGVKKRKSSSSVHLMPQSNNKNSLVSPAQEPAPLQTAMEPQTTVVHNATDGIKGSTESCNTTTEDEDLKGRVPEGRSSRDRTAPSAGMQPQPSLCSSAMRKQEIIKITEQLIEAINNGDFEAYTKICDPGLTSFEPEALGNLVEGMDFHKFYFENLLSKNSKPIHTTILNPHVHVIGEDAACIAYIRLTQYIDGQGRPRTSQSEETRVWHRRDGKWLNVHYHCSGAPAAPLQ
Summary of the method: as §1

CIT = biological target: T4, CIT (Homo sapiens, UniProt O14578)
T4 construct: purchased Ambit (DiscoverX) KINOMEscan; Cerep
Summary of the method: as §1

DCAMKL2 = biological target: T5, DCAMKL2 (Homo sapiens, UniProt Q8N568)
T5 construct: purchased Ambit (DiscoverX) KINOMEscan; Cerep
Summary of the method: as §1

DCAMKL3 = biological target: T6, DCAMKL3 (Homo sapiens, UniProt Q9C098)
T6 construct: purchased Ambit (DiscoverX) KINOMEscan; Cerep
Summary of the method: as §1

DYRK1a = biological target: T7, DYRK1a (Homo sapiens, UniProt Q13627)
T7 construct: purchased Ambit (DiscoverX) KINOMEscan; Cerep
Summary of the method: as §1

EPHA6 = biological target: T8, EPHA6 (Homo sapiens, UniProt Q9UF33)
T8 construct: purchased Ambit (DiscoverX) KINOMEscan; Cerep
T8 sequence (Q9UF33 23-1036): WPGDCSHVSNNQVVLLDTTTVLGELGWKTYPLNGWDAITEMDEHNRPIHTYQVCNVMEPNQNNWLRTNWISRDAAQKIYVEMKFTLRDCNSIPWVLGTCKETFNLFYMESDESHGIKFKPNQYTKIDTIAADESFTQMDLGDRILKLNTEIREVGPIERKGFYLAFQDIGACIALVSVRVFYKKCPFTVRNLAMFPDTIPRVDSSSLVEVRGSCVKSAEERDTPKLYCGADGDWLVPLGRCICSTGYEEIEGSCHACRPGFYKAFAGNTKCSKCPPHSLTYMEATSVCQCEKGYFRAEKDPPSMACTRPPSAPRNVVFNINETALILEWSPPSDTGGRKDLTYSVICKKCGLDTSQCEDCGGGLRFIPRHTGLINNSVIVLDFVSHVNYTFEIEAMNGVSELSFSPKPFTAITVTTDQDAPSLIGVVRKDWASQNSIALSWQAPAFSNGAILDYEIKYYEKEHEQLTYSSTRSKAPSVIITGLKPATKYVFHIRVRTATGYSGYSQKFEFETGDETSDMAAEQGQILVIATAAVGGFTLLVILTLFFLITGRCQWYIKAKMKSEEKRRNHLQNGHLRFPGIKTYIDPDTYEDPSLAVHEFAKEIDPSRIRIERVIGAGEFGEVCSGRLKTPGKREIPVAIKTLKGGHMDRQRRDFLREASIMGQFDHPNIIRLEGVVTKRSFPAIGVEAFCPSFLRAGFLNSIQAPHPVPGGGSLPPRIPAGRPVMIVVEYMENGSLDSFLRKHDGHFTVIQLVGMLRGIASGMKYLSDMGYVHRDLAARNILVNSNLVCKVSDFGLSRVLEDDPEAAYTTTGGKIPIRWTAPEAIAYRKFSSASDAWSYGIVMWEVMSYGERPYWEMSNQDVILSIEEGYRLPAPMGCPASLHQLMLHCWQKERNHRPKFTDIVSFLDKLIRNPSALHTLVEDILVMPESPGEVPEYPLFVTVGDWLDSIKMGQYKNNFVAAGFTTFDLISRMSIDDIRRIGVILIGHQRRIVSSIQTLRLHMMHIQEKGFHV
Summary of the method: as §1

ERBB4 = biological target: T9, ERBB4 (Homo sapiens, UniProt Q15303)
T9 construct: purchased Ambit (DiscoverX) KINOMEscan; Cerep
Summary of the method: as §1

IGF1R = biological target: T10, IGF1R (Homo sapiens, UniProt P08069)
T10 construct: purchased Ambit (DiscoverX) KINOMEscan; Cerep
Summary of the method: as §1

IKK-beta = biological target: T11, IKK-beta (Homo sapiens, UniProt O14920)
T11 construct: purchased Ambit (DiscoverX) KINOMEscan; Cerep
Summary of the method: as §1

INSR = biological target: T12, INSR (Homo sapiens, UniProt P06213)
T12 construct: purchased Ambit (DiscoverX) KINOMEscan; Cerep
Summary of the method: as §1

JNK2 = biological target: T13, JNK2 (Homo sapiens, UniProt P45984)
T13 construct: purchased Ambit (DiscoverX) KINOMEscan; Cerep
T13 sequence (P45984 whole entry): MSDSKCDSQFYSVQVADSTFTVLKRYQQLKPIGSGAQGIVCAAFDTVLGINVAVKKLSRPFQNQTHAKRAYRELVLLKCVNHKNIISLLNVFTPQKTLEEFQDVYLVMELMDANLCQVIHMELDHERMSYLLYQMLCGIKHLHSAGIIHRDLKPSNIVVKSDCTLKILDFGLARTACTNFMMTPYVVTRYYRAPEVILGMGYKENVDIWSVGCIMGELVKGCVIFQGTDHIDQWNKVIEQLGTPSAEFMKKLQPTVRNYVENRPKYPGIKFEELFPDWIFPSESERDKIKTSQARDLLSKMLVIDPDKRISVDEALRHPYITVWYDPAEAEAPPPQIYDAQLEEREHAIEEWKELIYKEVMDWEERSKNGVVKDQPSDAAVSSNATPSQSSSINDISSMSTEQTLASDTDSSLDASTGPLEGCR
Summary of the method: as §1

KIT(V559D) = biological target: T14, KIT(V559D) (Homo sapiens, UniProt P10721, V559D)
T14 construct: purchased Ambit (DiscoverX) KINOMEscan; Cerep
Summary of the method: as §1

LATS1 = biological target: T15, LATS1 (Homo sapiens, UniProt O95835)
T15 construct: purchased Ambit (DiscoverX) KINOMEscan; Cerep
Summary of the method: as §1

LKB1 = biological target: T16, LKB1 (Homo sapiens, UniProt Q15831)
T16 construct: purchased Ambit (DiscoverX) KINOMEscan; Cerep
Summary of the method: as §1

LYN = biological target: T17, LYN (Homo sapiens, UniProt P07948)
T17 construct: purchased Ambit (DiscoverX) KINOMEscan; Cerep
T17 sequence (P07948 whole entry): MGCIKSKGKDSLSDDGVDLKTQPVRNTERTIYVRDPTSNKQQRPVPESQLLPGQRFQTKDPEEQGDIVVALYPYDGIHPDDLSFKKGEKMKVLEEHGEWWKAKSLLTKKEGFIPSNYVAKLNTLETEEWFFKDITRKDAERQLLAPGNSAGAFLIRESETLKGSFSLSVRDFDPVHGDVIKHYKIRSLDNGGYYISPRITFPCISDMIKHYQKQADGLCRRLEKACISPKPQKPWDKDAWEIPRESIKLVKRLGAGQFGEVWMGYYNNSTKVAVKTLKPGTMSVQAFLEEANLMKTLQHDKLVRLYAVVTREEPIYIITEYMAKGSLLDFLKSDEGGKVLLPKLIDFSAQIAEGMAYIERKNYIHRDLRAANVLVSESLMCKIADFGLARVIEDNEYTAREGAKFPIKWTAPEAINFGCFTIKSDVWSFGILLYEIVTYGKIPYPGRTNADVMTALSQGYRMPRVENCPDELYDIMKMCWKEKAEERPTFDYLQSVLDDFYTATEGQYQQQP
Summary of the method: as §1

MAP4K2 = biological target: T18, MAP4K2 (Homo sapiens, UniProt Q12851)
T18 construct: purchased Ambit (DiscoverX) KINOMEscan; Cerep
Summary of the method: as §1

MEK4 = biological target: T19, MEK4 (Homo sapiens, UniProt P45985)
T19 construct: purchased Ambit (DiscoverX) KINOMEscan; Cerep
Summary of the method: as §1

MET(M1250T) = biological target: T20, MET(M1250T) (Homo sapiens, UniProt P08581, M1250T)
T20 construct: purchased Ambit (DiscoverX) KINOMEscan; Cerep
Summary of the method: as §1

NEK2 = biological target: T21, NEK2 (Homo sapiens, UniProt P51955)
T21 construct: purchased Ambit (DiscoverX) KINOMEscan; Cerep
Summary of the method: as §1

NEK7 = biological target: T22, NEK7 (Homo sapiens, UniProt Q8TDX7)
T22 construct: purchased Ambit (DiscoverX) KINOMEscan; Cerep
T22 sequence (Q8TDX7 whole entry): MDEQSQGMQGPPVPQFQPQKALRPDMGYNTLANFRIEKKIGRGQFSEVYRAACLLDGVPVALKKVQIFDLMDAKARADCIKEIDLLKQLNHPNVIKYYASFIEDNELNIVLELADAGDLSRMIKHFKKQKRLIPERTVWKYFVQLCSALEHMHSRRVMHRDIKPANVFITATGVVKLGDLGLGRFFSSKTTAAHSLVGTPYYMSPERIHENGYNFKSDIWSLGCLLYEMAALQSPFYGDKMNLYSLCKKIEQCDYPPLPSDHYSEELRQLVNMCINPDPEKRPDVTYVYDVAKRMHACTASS
Summary of the method: as §1

PAK3 = biological target: T23, PAK3 (Homo sapiens, UniProt O75914)
T23 construct: purchased Ambit (DiscoverX) KINOMEscan; Cerep
T23 sequence (O75914 whole entry): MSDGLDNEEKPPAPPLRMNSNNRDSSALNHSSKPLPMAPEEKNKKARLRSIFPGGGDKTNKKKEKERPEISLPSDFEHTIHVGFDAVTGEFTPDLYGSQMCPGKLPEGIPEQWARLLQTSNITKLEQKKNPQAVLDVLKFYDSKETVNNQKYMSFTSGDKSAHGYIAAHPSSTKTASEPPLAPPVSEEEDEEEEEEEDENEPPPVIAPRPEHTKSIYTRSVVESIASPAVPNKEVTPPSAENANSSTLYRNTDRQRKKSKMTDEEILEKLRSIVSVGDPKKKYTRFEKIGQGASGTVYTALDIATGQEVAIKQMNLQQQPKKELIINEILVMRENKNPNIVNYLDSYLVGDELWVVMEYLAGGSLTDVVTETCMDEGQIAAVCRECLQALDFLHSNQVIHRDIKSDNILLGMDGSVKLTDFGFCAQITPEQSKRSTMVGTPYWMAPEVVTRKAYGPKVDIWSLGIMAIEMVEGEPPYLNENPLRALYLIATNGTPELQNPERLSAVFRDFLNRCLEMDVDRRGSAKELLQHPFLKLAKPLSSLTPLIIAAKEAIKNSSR
Summary of the method: as §1

PCTK1 = biological target: T24, PCTK1 (Homo sapiens, UniProt Q00536)
T24 construct: purchased Ambit (DiscoverX) KINOMEscan; Cerep
T24 sequence (Q00536 whole entry): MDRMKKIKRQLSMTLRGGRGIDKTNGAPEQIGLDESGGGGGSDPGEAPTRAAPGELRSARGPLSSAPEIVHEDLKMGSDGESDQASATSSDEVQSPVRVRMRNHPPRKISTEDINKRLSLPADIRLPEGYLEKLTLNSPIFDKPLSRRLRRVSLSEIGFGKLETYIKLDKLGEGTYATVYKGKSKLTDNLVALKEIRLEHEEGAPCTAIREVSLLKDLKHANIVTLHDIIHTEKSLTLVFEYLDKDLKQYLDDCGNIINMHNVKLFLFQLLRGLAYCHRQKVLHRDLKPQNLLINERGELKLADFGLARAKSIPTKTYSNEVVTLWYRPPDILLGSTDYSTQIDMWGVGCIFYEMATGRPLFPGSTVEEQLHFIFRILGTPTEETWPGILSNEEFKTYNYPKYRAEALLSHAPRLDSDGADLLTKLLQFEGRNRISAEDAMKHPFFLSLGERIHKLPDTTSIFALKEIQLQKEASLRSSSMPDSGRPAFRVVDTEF
Summary of the method: as §1

PHKG1 = biological target: T25, PHKG1 (Homo sapiens, UniProt Q16816)
T25 construct: purchased Ambit (DiscoverX) KINOMEscan; Cerep
Summary of the method: as §1

PIK3CA(C420R) = biological target: T26, PIK3CA(C420R) (Homo sapiens, UniProt P42336, C420R)
T26 construct: purchased Ambit (DiscoverX) KINOMEscan; Cerep
T26 sequence (P42336 whole entry C420R): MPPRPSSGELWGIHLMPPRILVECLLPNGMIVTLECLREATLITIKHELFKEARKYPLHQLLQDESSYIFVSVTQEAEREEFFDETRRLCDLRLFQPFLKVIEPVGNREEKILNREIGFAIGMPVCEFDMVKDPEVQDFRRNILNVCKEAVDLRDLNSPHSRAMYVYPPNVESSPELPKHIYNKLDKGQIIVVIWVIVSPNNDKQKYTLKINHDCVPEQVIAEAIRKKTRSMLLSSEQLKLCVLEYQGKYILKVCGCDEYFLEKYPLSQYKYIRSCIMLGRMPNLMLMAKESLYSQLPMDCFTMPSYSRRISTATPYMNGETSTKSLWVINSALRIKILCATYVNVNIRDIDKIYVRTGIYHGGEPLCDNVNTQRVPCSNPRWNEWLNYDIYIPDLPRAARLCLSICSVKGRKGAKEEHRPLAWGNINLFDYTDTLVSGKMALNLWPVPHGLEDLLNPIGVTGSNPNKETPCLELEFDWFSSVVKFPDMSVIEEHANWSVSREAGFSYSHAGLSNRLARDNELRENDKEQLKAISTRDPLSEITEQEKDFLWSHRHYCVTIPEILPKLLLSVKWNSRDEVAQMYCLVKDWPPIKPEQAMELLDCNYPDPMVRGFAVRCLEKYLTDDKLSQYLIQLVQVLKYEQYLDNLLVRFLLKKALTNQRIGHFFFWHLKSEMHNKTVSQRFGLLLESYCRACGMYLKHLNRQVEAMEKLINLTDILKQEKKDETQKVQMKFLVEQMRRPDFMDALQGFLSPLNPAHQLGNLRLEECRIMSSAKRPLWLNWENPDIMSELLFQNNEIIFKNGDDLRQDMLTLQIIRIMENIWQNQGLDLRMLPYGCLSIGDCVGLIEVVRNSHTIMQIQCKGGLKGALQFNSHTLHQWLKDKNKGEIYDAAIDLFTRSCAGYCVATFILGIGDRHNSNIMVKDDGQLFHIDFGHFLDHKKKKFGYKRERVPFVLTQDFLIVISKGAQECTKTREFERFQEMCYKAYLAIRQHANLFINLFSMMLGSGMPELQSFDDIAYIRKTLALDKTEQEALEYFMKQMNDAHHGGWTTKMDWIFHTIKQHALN
Summary of the method: as §1

PIK3CA(E542K) = biological target: T27, PIK3CA(E542K) (Homo sapiens, UniProt P42336, E542K)
T27 construct: purchased Ambit (DiscoverX) KINOMEscan; Cerep
T27 sequence (P42336 whole entry E542K): as the sequence (P42336 whole entry C420R) above, with R420C, E542K counted along it
Summary of the method: as §1

PRKG1 = biological target: T28, PRKG1 (Homo sapiens, UniProt Q13976)
T28 construct: purchased Ambit (DiscoverX) KINOMEscan; Cerep
Summary of the method: as §1

PRKR = biological target: T29, PRKR (Homo sapiens, UniProt P19525)
T29 construct: purchased Ambit (DiscoverX) KINOMEscan; Cerep
Summary of the method: as §1

SIK2 = biological target: T30, SIK2 (Homo sapiens, UniProt Q9H0K1)
T30 construct: purchased Ambit (DiscoverX) KINOMEscan; Cerep
Summary of the method: as §1

STK35 = biological target: T31, STK35 (Homo sapiens, UniProt Q8TDR2)
T31 construct: purchased Ambit (DiscoverX) KINOMEscan; Cerep
Summary of the method: as §1

TRKc = biological target: T32, TRKc (Homo sapiens, UniProt Q16288)
T32 construct: purchased Ambit (DiscoverX) KINOMEscan; Cerep
Summary of the method: as §1

VEGFR2 = biological target: T33, VEGFR2 (Homo sapiens, UniProt P35968)
T33 construct: purchased Ambit (DiscoverX) KINOMEscan; Cerep
Summary of the method: as §1

YANK2 = biological target: T34, YANK2 (Homo sapiens, UniProt Q9NY57)
T34 construct: purchased Ambit (DiscoverX) KINOMEscan; Cerep
Summary of the method: as §1

CCCCN1CCN(C(=N)c2cccc(NC(=O)Nc3ccc(S(=O)(=O)NCc4ccc(S(N)(=O)=O)cc4)cc3)c2)CC1 [SC81458, 4-(3-(3-((4-butylpiperazin-1-yl)(imino)methyl)phenyl)ureido)-N-(4-sulfamoylbenzyl) benzenesulfonamide]
remaining binding at 10 µM (ADCK4): 100% | remaining binding at 10 µM (BIKE): 85% | remaining binding at 10 µM (CAMK2g): 100% | remaining binding at 10 µM (CIT): 94% | remaining binding at 10 µM (DCAMKL2): 100% | remaining binding at 10 µM (DCAMKL3): 62% | remaining binding at 10 µM (DYRK1a): 100% | remaining binding at 10 µM (EPHA6): 92% | remaining binding at 10 µM (ERBB4): 100% | remaining binding at 10 µM (IGF1R): 77% | remaining binding at 10 µM (IKK-beta): 100% | remaining binding at 10 µM (INSR): 100% | remaining binding at 10 µM (JNK2): 97% | remaining binding at 10 µM (KIT(V559D)): 100% | remaining binding at 10 µM (LATS1): 82% | remaining binding at 10 µM (LKB1): 88% | remaining binding at 10 µM (LYN): 97% | remaining binding at 10 µM (MAP4K2): 100% | remaining binding at 10 µM (MEK4): 100% | remaining binding at 10 µM (MET(M1250T)): 100% | remaining binding at 10 µM (NEK2): 96% | remaining binding at 10 µM (NEK7): 95% | remaining binding at 10 µM (PAK3): 93% | remaining binding at 10 µM (PCTK1): 92% | remaining binding at 10 µM (PHKG1): 80% | remaining binding at 10 µM (PIK3CA(C420R)): 100% | remaining binding at 10 µM (PIK3CA(E542K)): 100% | remaining binding at 10 µM (PRKG1): 86% | remaining binding at 10 µM (PRKR): 91% | remaining binding at 10 µM (SIK2): 100% | remaining binding at 10 µM (STK35): 87% | remaining binding at 10 µM (TRKc): 100% | remaining binding at 10 µM (VEGFR2): 84% | remaining binding at 10 µM (YANK2): 99%
